From ChEMBL document CHEMBL3046347, “Synthesis and biological evaluation of novel curcumin analogues as anti-inflammatory, anti-cancer and anti-oxidant agents” (Med Chem Res, 2012)

Legend:
ACHN [1] = assay: Cytotoxicity against Homo sapiens (human) ACHN cells at 500 nM after 48 hr by propidium iodide-based fluorometric assay; assay type: functional; conditions: read-out: GI
HCT-116 [2] = assay: Cytotoxicity against Homo sapiens (human) HCT116 cells at 500 nM after 48 hr by propidium iodide-based fluorometric assay; assay type: functional; conditions: HCT-116, 48 h, read-out: GI
PANC-1 [3] = assay: Cytotoxicity against Homo sapiens (human) PANC1 cells at 500 nM after 48 hr by propidium iodide-based fluorometric assay; assay type: functional; conditions: PANC-1, 48 h, read-out: GI
Calu-1 [4] = assay: Cytotoxicity against Homo sapiens (human) Calu1 cells at 500 nM after 48 hr by propidium iodide-based fluorometric assay; assay type: functional; conditions: Calu-1, 48 h, read-out: GI
[5] = Cytotoxicity against Homo sapiens (human) H460 cells at 500 nM after 48 hr by propidium iodide-based fluorometric assay; assay type: functional; conditions: NCI-H460, 48 h, read-out: GI
[6] = Cytotoxicity against Homo sapiens (human) […] cells at 1 uM; assay type: cell-based
THP-1 [7] = assay: Anti-inflammatory activity in Homo sapiens (human) THP1 cells assessed as inhibition of LPS-induced IL6 production at 1 uM incubated for 30 min prior to LPS-challenge measured after 24 hr by ELISA; assay type: functional
THP-1 [8] = assay: Anti-inflammatory activity in Homo sapiens (human) THP1 cells assessed as inhibition of LPS-induced TNFalpha production at 1 uM incubated for 30 min prior to LPS-challenge measured after 24 hr by ELISA; assay type: functional
[9] = Antioxidant activity assessed as hydroxyl radical scavenging activity at 1 mM by spectrophotometric analysis; assay type: functional
[10] = Antioxidant activity assessed as reduction of potassium ferricynide at 1 mM after 10 min by spectrophotometric analysis; assay type: functional; design: scale not given: the % may be the effect or the level left
[11] = system: Radical scavenging activity; assay: Antioxidant activity assessed as DPPH radical scavenging activity at 1 uM after 20 min by spectrophotometric analysis; assay type: functional
Calu-1 [12] = assay: Cytotoxicity against Homo sapiens (human) Calu1 cells at 10 uM after 48 hr by propidium iodide-based fluorometric assay; assay type: functional; conditions: Calu-1, 48 h, read-out: GI
[13] = Cytotoxicity against Homo sapiens (human) H460 cells at 10 uM after 48 hr by propidium iodide-based fluorometric assay; assay type: functional; conditions: NCI-H460, 48 h, read-out: GI
THP-1 [14] = assay: Anti-inflammatory activity in Homo sapiens (human) THP1 cells assessed as inhibition of LPS-induced TNFalpha production at 10 uM incubated for 30 min prior to LPS-challenge measured after 24 hr by ELISA; assay type: functional
Trypsin (Homo sapiens) = Trypsin (Homo sapiens) (UniProt P07477+P07478+P35030); assay: Inhibition of trypsin (unknown origin) using bovine serum albumin as substrate at 1 uM incubated for 20 min prior to substrate addition measured after 25 min by Lowry method; assay type: protein assay
[15] = Antioxidant activity assessed as reduction of potassium ferricynide at 1 uM after 10 min by spectrophotometric analysis; assay type: functional; design: scale not given: the % may be the effect or the level left
[16] = biological target: T1, Prostaglandin G/H synthase 1 (Ovis aries) (UniProt P05979); conditions: at 1 µM;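 also: colorimetric read-out, measured after 5 min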
T1 sequence (whole entry): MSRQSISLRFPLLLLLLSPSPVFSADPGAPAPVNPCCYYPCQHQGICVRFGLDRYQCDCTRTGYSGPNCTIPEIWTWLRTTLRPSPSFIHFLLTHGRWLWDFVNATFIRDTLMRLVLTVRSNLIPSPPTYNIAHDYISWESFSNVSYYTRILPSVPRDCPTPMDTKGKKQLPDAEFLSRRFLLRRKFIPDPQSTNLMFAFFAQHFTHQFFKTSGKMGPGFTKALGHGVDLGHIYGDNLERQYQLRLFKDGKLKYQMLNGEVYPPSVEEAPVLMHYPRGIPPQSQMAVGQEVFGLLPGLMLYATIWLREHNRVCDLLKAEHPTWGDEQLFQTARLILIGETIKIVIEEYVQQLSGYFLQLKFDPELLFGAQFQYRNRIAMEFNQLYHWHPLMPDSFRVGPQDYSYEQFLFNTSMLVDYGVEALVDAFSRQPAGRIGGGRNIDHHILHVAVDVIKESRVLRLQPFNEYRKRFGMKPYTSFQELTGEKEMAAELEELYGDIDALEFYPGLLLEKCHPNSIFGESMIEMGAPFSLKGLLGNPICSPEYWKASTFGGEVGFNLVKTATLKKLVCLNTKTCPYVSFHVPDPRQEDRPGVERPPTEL
Description: Inhibition of Ovis aries (sheep) COX1 at 1 uM after 5 min by colorimetric analysis

PANC-1 [17] = assay: Cytotoxicity against Homo sapiens (human) PANC1 cells at 10 uM after 48 hr by propidium iodide-based fluorometric assay; assay type: functional; conditions: PANC-1, 48 h, read-out: GI
HCT-116 [18] = assay: Cytotoxicity against Homo sapiens (human) HCT116 cells at 10 uM after 48 hr by propidium iodide-based fluorometric assay; assay type: functional; conditions: HCT-116, 48 h, read-out: GI
[19] = biological target: T2, Prostaglandin G/H synthase 2 (Ovis aries) (UniProt P79208); assay: Inhibition of Ovis aries (sheep) COX2 at 1 uM after 5 min by colorimetric analysis
T2 sequence (whole entry): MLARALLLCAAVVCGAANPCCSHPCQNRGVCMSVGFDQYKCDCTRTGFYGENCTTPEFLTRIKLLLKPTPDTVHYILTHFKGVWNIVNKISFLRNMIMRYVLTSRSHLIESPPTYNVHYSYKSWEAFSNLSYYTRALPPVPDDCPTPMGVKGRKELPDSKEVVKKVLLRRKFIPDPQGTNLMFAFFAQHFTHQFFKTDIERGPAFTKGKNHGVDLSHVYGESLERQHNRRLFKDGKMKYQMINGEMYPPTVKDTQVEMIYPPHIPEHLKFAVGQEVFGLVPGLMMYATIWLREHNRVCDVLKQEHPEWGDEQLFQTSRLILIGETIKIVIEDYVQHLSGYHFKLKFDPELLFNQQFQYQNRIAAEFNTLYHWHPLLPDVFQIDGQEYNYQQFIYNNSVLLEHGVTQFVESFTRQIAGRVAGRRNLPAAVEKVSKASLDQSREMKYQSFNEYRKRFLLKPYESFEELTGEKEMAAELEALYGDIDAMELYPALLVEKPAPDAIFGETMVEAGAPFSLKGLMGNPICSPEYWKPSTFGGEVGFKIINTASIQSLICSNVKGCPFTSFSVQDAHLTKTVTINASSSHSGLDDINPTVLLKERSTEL

ACHN [20] = assay: Cytotoxicity against Homo sapiens (human) ACHN cells at 10 uM after 48 hr by propidium iodide-based fluorometric assay; assay type: functional; conditions: read-out: GI
[21] = Antioxidant activity assessed as hydroxyl radical scavenging activity at 1 uM by spectrophotometric analysis; assay type: functional
THP-1 [22] = assay: Anti-inflammatory activity in Homo sapiens (human) THP1 cells assessed as inhibition of LPS-induced IL6 production at 10 uM incubated for 30 min prior to LPS-challenge measured after 24 hr by ELISA; assay type: functional
[23] = biological target: T3, Beta-glucuronidase (Homo sapiens) (UniProt P08236); assay: Inhibition of beta-glucuronidase (unknown origin) using p-nitrophenyl-beta-D-glucopyranosiduronic acid as substrate at 1 uM after 30 min by spectrophotometric analysis
T3 sequence (whole entry): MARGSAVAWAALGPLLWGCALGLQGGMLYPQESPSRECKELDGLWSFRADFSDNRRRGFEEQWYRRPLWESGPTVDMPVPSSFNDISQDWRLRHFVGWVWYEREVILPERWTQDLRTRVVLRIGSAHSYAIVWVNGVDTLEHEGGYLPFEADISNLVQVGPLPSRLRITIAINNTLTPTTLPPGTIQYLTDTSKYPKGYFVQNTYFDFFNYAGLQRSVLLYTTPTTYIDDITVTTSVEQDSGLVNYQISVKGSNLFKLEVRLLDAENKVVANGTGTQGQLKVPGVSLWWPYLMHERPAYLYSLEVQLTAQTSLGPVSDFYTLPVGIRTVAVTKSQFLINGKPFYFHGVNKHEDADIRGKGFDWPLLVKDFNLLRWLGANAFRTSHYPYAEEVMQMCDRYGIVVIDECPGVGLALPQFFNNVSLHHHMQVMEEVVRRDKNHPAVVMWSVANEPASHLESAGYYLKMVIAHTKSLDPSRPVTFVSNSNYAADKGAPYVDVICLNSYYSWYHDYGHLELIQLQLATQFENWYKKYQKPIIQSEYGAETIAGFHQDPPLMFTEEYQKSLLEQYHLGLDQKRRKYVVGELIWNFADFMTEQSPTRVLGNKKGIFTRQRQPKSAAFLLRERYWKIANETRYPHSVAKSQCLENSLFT

[24] = Cytotoxicity against Homo sapiens (human) […] cells at 10 uM; assay type: cell-based
Calu-1 [25] = assay: Cytotoxicity against Homo sapiens (human) Calu1 cells at 700 nM after 48 hr by propidium iodide-based fluorometric assay; assay type: functional; conditions: Calu-1, 48 h, read-out: GI
[26] = Cytotoxicity against Homo sapiens (human) H460 cells at 700 nM after 48 hr by propidium iodide-based fluorometric assay; assay type: functional; conditions: NCI-H460, 48 h, read-out: GI
HCT-116 [27] = assay: Cytotoxicity against Homo sapiens (human) HCT116 cells at 700 nM after 48 hr by propidium iodide-based fluorometric assay; assay type: functional; conditions: HCT-116, 48 h, read-out: GI
PANC-1 [28] = assay: Cytotoxicity against Homo sapiens (human) PANC1 cells at 700 nM after 48 hr by propidium iodide-based fluorometric assay; assay type: functional; conditions: PANC-1, 48 h, read-out: GI
ACHN [29] = assay: Cytotoxicity against Homo sapiens (human) ACHN cells at 700 nM after 48 hr by propidium iodide-based fluorometric assay; assay type: functional; conditions: read-out: GI

Work on Nc1ccn([C@@H]2O[C@H](CO)[C@@H](O)C2(F)F)c(=O)n1 [GEMCITABINE] yielded an inhibition of growth at 0.5 µM (ACHN [1]) of 84%, an inhibition of growth at 0.5 µM (HCT-116 [2]) of 86% and an inhibition of growth at 0.5 µM (PANC-1 [3]) of 78%. For the same compound, the inhibition of growth at 0.5 µM (Calu-1 [4]) was 87% and the inhibition of growth at 0.5 µM [5] was 79%.
With C[C@@H]1C[C@H]2[C@@H]3CCC4=CC(=O)C=C[C@]4(C)[C@@]3(F)[C@@H](O)C[C@]2(C)[C@@]1(O)C(=O)CO [DEXAMETHASONE] the Activity [6] was 0%, the inhibition at 1 µM (THP-1 [7]) was 94% and the inhibition at 1 µM (THP-1 [8]) was 72%.
O=C1O[C@H]([C@@H](O)CO)C(O)=C1O showed an Activity [9] of 45.9% and an Activity [10] of 78.9%.
In the case of COc1cc(OC)c(/C=C/C(=O)c2cccc(NC(=O)c3ccccc3)c2)c(OC)c1Br, the Activity [11] is reported as 49.4%, the inhibition of growth at 10 µM (Calu-1 [12]) is reported as 6% and the inhibition of growth at 10 µM [13] is reported as 14%. For the same compound, the inhibition at 10 µM (THP-1 [14]) was 91%, the inhibition (Trypsin (Homo sapiens)) was 58.1% and the Activity [15] was 46.6%. For the same compound, the inhibition [16] was 51.9%, the inhibition of growth at 10 µM (PANC-1 [17]) was 10% and the inhibition of growth at 10 µM (HCT-116 [18]) was 0%. The inhibition [19] was 65.7%, the inhibition of growth at 10 µM (ACHN [20]) was 21% and the Activity [21] was 54.1%. It also gave an inhibition at 10 µM (THP-1 [22]) of 98%, an inhibition [23] of 49.6% and an Activity [24] of 65%.
Work on COc1cc(OC)c(/C=C/C(=O)c2cccc(NC(=O)c3ccc(F)cc3)c2)c(OC)c1Br yielded an Activity [11] of 44.3%, an inhibition of growth at 10 µM (Calu-1 [12]) of 60% and an inhibition of growth at 10 µM [13] of 62%. The inhibition at 10 µM (THP-1 [14]) was 85%, the inhibition (Trypsin (Homo sapiens)) was 72.9% and the Activity [15] was 43.9%. It also gave an inhibition [16] of 58.9%, an inhibition of growth at 10 µM (PANC-1 [17]) of 66% and an inhibition of growth at 10 µM (HCT-116 [18]) of 64%. The inhibition [19] was 83.3%, the inhibition of growth at 10 µM (ACHN [20]) was 69% and the Activity [21] was 33.4%. For the same compound, the inhibition at 10 µM (THP-1 [22]) was 97%, the inhibition [23] was 79.4% and the Activity [24] was 49%.
With CN1CC[C@H](c2c(O)cc(O)c3c(=O)cc(-c4ccccc4Cl)oc23)[C@H](O)C1 [ALVOCIDIB] the inhibition of growth at 0.7 µM (Calu-1 [25]) was 82%, the inhibition of growth at 0.7 µM [26] was 73% and the inhibition of growth at 0.7 µM (HCT-116 [27]) was 83%. It also gave an inhibition of growth at 0.7 µM (PANC-1 [28]) of 68% and an inhibition of growth at 0.7 µM (ACHN [29]) of 73%.
In the case of COc1cc(OC)c(/C=C/C(=O)c2cccc(NC(=O)c3cccc(C)c3)c2)c(OC)c1Br, the Activity [11] is reported as 36.7%, the inhibition of growth at 10 µM (Calu-1 [12]) is reported as 22% and the inhibition of growth at 10 µM [13] is reported as 32%. For the same compound, the inhibition at 10 µM (THP-1 [14]) was 87%, the inhibition (Trypsin (Homo sapiens)) was 51.6% and the Activity [15] was 29.2%. The inhibition [16] was 24.2%, the inhibition of growth at 10 µM (PANC-1 [17]) was 23% and the inhibition of growth at 10 µM (HCT-116 [18]) was 30%. For the same compound, the inhibition [19] was 48.2%, the inhibition of growth at 10 µM (ACHN [20]) was 28% and the Activity [21] was 38.3%. For the same compound, the inhibition at 10 µM (THP-1 [22]) was 97%, the inhibition [23] was 66.9% and the Activity [24] was 56%.
